Ki data for 17 compounds are collected here from BindingDB's records for doi:10.1002/1098-2396(20010101)39:1 (Nih, 2001).

Where “and” joins values, the source holds several entries; their conditions need not be identical. Equal values may be shown once.

The target in test [1] is Sodium-dependent dopamine transporter (Rattus norvegicus, UniProt P23977).
For test [2], the target named is Sodium-dependent serotonin transporter (Rattus norvegicus, UniProt P31652).
In test [3] the target is Norepinephrine transporter (Rattus norvegicus, UniProt Q9JIA2).

Chain of Sodium-dependent serotonin transporter (P31652 whole entry): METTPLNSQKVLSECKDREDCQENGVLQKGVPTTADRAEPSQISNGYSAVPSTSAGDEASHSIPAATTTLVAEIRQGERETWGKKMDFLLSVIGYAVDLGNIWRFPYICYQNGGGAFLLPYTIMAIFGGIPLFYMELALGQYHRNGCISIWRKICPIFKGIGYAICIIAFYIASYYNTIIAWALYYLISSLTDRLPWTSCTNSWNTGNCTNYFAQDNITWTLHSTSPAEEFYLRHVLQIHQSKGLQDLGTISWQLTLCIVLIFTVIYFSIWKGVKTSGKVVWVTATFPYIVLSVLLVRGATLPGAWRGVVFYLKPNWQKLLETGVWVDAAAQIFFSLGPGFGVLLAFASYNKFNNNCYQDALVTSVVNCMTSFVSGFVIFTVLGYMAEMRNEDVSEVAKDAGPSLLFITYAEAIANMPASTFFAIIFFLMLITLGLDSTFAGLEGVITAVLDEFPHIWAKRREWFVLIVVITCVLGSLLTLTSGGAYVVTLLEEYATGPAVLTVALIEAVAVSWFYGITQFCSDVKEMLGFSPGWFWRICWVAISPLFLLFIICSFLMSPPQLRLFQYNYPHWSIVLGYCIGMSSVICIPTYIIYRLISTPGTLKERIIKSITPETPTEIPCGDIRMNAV
Chain of Sodium-dependent dopamine transporter (P23977 whole entry): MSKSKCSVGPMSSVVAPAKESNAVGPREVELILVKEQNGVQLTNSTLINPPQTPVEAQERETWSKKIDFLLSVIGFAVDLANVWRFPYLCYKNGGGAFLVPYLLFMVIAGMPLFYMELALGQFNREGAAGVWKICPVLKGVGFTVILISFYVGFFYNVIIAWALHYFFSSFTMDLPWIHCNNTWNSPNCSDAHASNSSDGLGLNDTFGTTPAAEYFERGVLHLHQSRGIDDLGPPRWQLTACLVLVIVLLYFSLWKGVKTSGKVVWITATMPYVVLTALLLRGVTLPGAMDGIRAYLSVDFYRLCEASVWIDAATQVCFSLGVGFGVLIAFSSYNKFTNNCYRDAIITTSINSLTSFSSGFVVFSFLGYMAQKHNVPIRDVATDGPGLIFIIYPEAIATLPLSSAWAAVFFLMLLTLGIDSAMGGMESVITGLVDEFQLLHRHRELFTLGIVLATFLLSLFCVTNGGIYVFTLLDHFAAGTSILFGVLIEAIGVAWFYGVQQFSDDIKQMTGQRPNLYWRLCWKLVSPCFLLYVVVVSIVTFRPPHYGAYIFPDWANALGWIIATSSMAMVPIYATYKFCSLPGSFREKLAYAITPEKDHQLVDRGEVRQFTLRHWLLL

A word on the Ki: it is a measure of affinity in units of concentration, obtained from inhibition or displacement. A high value points to lower affinity. For the compound `NCCc1ccc(O)cc1`, the inhibition constant (Ki) in test [1] came out at 106 nM; in test [2], 1560 nM; in test [3], 72.5 nM.

`NCCc1ccc(O)c(O)c1`: the inhibition constant (Ki) in test [2] turned out to be 6490 nM; in test [3] it was 40.3 nM.

For `CC(C)(N)Cc1ccccc1` [2-methyl-1-phenylpropan-2-amine], the Ki in test [1] is 1580 nM; in test [2], greater than 10000 nM; in test [3], 244 nM.

On to `COC(=O)C1C2CC[C@H](C[C@@H]1c1ccc(N)cc1)N2C` (stereo partly drawn) [(3S,8R)-3-(4-Amino-phenyl)-8-methyl-8-aza-bicyclo[3.2.1]octane-2-carboxylic acid methyl ester], for which, in test [1], the Ki was 2.15 nM.

For `CC(C)(N)Cc1ccc(Cl)cc1` [CAS_461-78-9], the Ki in test [1] amounted to 3940 nM; in test [2] it was 338 nM; in test [3], 451 nM.

For the compound `NC1=NCC(c2ccccc2)O1` (stereo not drawn) [CAS_2207-50-3], the inhibitory constant (Ki) came to 216 nM in test [1], 1240 nM in test [2] and 54.5 nM in test [3].

Consider `CN[C@@H](C)Cc1ccc2c(c1)OCO2` [DL-(3,4-Methylenedioxy)methamphetamine], for which the inhibitory constant (Ki) is 1570 nM in test [1], 238 nM in test [2] and 462 nM in test [3].

For the compound `CN[C@@H](C)[C@H](O)c1ccccc1` [Ephedrine,(-)], the results for the inhibitory constant (Ki) in test [1], in test [2] and in test [3] were 4400 nM, greater than 10000 nM and 225 nM, respectively.

In test [3], `c1ccc(CCCN2CCN(CCOC(c3ccccc3)c3ccccc3)CC2)cc1` [GBR-12935] yielded a Ki of 277 nM.

As to `CN[C@@H](C)Cc1ccccc1` [METHAMPHETAMINE (+)], the Ki in test [3] was 48 nM and 234 nM.

For `O[C@]1(c2ccc(Cl)cc2)c2ccccc2C2=NCCN21` [Mazanor], the results for the Ki in test [1], in test [2] and in test [3] were 25.9 nM, 272 nM and 2.88 nM, respectively.

For `CCNC(C)Cc1cccc(C(F)(F)F)c1` (stereo not drawn) [NSC_3337], the inhibitory constant (Ki) in test [1] is greater than 10000 nM.

Take `NCC(O)c1ccc(O)c(O)c1` (stereo not drawn) [Noradrenaline,(+)]: the inhibition constant (Ki) was 357 nM in test [1], greater than 10000 nM in test [2] and 63.9 nM in test [3].

In the case of `COC(=O)[C@H]1[C@@H](c2ccc(I)cc2)C[C@@H]2CC[C@H]1N2C` [RTI 55, (exo,exo)-isomer, Iodine (125) labeled], the Ki in test [1] worked out at 0.83 nM; in test [2], 1 nM; in test [3], 5.89 nM.

As for `CN1[C@H]2CC[C@@H]1[C@@H](C(=O)N1CCCC1)[C@@H](c1ccc(I)cc1)C2` [RTI-229], the values for the inhibition constant Ki in test [2] and in test [3] were 362 nM and 19.5 nM, respectively.

For the compound `NCCc1c[nH]c2ccc(O)cc12` [[3H]-5-HT], the Ki in test [1] was 2700 nM; in test [3], 3010 nM.

The compound `C[C@H](N)Cc1ccccc1` [beta-aminopropylbenzene] came in with a Ki in test [3] of 38.9 nM.
